Data from PMC7530112 (European journal of medicinal chemistry, 2020).
Several values for one entry are separate records, joined by “and”; a condition that tells them apart may be missing. Equal values may be shown once.

Columns and labels:
[1] = human, microsomes
[2] = mouse, microsomes
HIV-1NL4-3 = assay: Anti-HIV-1 assay in TZM-GFP cells; settings: for Inhibition% at 20 μM: 20 μM compound; for Inhibition% at 2 μM: 2 μM compound
[3] = Microsomal stability assay, human liver microsomes; settings: without Cobi
[4] = HLMs; cited from earlier work

CN(C(=O)C(Cc1ccccc1)NC(=O)CN1C(=O)NC2(CCCCC2)C1=O)c1ccc(Cl)cc1 (stereo not drawn) [Compound 50, N-(4-Chlorophenyl)-2-(2-(2,4-dioxo-1,3-diazaspiro[4.5]decan-3-yl)acetamido)-N-methyl-3-phenylpropanamide]
Phase I metabolic stability t1/2, HLM [1]: 2.5 min | Phase I metabolic stability t1/2, MLM [2]: 1.1 min | Inhibition% at 20 μM (HIV-1NL4-3): −/96%

(2S)-N-(3-Chlorophenyl)-2-(2-(4,7-dimethyl-2-oxoindolin-3-yl)acetamido)-N-methyl-3-phenylpropanamide [Compound 24]
Phase I metabolic stability t1/2, HLM [1]: 6.7 min | Phase I metabolic stability t1/2, MLM [2]: 1.4 min | fold improved half-life over PF74 in HLMs [3]: 7 to 10 fold and 10 fold

(S)-N-Methyl-2-(2-(2-methyl-1H-indol-3-yl)acetamido)-N,3-diphenylpropanamide [PF74, reference compound]
Phase I metabolic stability t1/2, MLM [2]: 0.6 min | half-life (t1/2) in human liver microsomes [4]: less than 1 min | Inhibition% at 2 μM (HIV-1NL4-3): 91% | Inhibition% at 20 μM (HIV-1NL4-3): 98%

CN(C(=O)[C@H](Cc1ccccc1)NC(=O)Cc1ccc2ccccc2c1)c1ccc(Cl)cc1 [Compound 27, (S)-N-(4-Chlorophenyl)-N-methyl-2-(2-(naphthalen-2-yl)acetamido)-3-phenylpropanamide]
Phase I metabolic stability t1/2, HLM [1]: 2.7 min | Phase I metabolic stability t1/2, MLM [2]: 1.4 min | Inhibition% at 2 μM (HIV-1NL4-3): 95% | Inhibition% at 20 μM (HIV-1NL4-3): 100%

(S)-N-(4-Chlorophenyl)-N-methyl-2-(2-(naphthalen-1-yl)acetamido)-3-phenylpropanamide [Compound 33]
Phase I metabolic stability t1/2, HLM [1]: 1.1 min | Phase I metabolic stability t1/2, MLM [2]: 0.6 min | Inhibition% at 2 μM (HIV-1NL4-3): 98% | Inhibition% at 20 μM (HIV-1NL4-3): 100%
